The results in this text go back to patent publication US11274078B2, “Drug for treating tumor diseases and having antibacterial antivirus anti-inflammatory effects” (priority 2017, dated 2022).

Broadly, the IC50 is the point on the concentration scale where inhibition reaches its midpoint.

What all share (format): cell-based
The test system of one assay is HCT-116 tumor cells. As to the kind of experiment: Cell proliferation inhibition assay (MTT), HCT-116. Particulars: HCT-116 cells, 48 hours. Here is the method:
(§1) Case Study I: Antitumor Cell Activity of Naphthalene Diamides • Compounds of Tables 1 and 2 were synthesized in multiple steps according to the procedure of Examples 1-3 using relevant antitumor cell activity assays. The compound synthesized above was tested for IC50 concentration (MIC) against HCT-116, MCF-7, Calu-6 and A549 tumor cells by in vitro cellular activity.
(§2) Case Study II: Cell Proliferation Inhibition Assay • Based on MTT method, briefly plating HCT-116, MCF-7 and A549 cells in a concentration of 2×10^4/ml with complete culture medium in 96-well plates overnight. The volume for each well was 100 μL. Cells were treated with compounds in concentrations of 40, 20, 10, 5, 2.5, 1.25 μmol/L, and cultured at 37° C., 5% CO2 for 48 hours, followed by adding 20 μL of 5 mg/ml MTT reagent per well and continuing to culture for 2˜4 h, respectively. As a control, DMSO solvent was added in an equal volume with concentration of 0.1%. Each sample was tested as 5 replicate wells. Then the supernatant was discarded, and DMSO was added in a volume of 150 μL, followed by shaking and mixing for 15 mins. The absorbance (A) value (A value is proportional to the number of living cells) is measured by a microplate reader at the wavelength of 570 nm, and the average value is taken. The relative cell proliferation inhibition rate (%)=(control group A570—experimental group A570)/control group A570×100%. The concentration of 50% inhibition rate (IC50) of the compound was calculated by the repetition of at least 3 times. The positive control was used as 5-flucrouracil.

The subject of a further assay is A549 tumor cells. The assay is described as follows: Cell proliferation inhibition assay (MTT), A549. Particulars: 48 hours. The method, then: as §1, §2
For another assay, the system named is MCF-7 tumor cells. As to the kind of experiment: Cell proliferation inhibition assay (MTT), MCF-7. The conditions noted are these: MCF-7 cells, 48 hours. The method, then: as §1, §2
A further assay relates to Calu-6 tumor cells. As to the kind of experiment: In vitro antitumor cell activity, Calu-6. Particulars: Calu-6 cells. The method, then:
as §1, §2

Take `CC(C)NC(=O)c1ccc2cc(NC(=O)c3cccc(Cl)c3)ccc2c1` [ABC-47]: the IC50 with HCT-116 tumor cells amounted to 2.5 µM; in the assay on A549 tumor cells, 12.4 µM.

With `COc1ccc(C(=O)Nc2ccc3cc(C(=O)NC(C)C)ccc3c2)cc1` [ABC-29], the IC50 in the assay on HCT-116 tumor cells was 8 µM.

As for `CC(C)NC(=O)c1ccc2cc(NC(=O)c3ccc(Cl)c(Cl)c3)ccc2c1` [ABC-48], the IC50 with HCT-116 tumor cells was 3.9 µM; in the assay with A549 tumor cells it was 12.6 µM.

On to `Cc1cccc(C(=O)Nc2ccc3cc(C(=O)Nc4nccs4)ccc3c2)c1` [ABC-32], for which the IC50 was found to be 5.5 µM in the assay on HCT-116 tumor cells, 2.9 µM in the assay with MCF-7 tumor cells, 28.1 µM in the assay on Calu-6 tumor cells and 14.2 µM in the assay on A549 tumor cells.

In turn, `O=C(Nc1ccc2cc(C(=O)Nc3nccs3)ccc2c1)c1ccc(F)cc1` [ABC-02] showed an IC50 with HCT-116 tumor cells of 10 µM.

Consider `COc1ccc(OC)c(C(=O)Nc2ccc3cc(C(=O)NCc4ccc(Cl)nc4)ccc3c2)c1` [ABC-15], for which the IC50 in the assay with HCT-116 tumor cells is 6.6 µM; in the assay with MCF-7 tumor cells, 3.5 µM.

For the molecule `O=C(Nc1ccc2cc(C(=O)NC3CC3)ccc2c1)c1ccc(F)cc1` [ABC-21], the IC50 in the assay on Calu-6 tumor cells and in the assay with A549 tumor cells was 48.5 µM each time.

With `O=C(Nc1ccc2cc(C(=O)Nc3nccs3)ccc2c1)c1cccc(C(F)(F)F)c1` [ABC-34], the IC50 in the assay with HCT-116 tumor cells was 5.2 µM; with MCF-7 tumor cells it was 1.6 µM.

In turn, `O=C(Nc1ccc2cc(C(=O)NC3CCCCC3)ccc2c1)c1cccc(C(F)(F)F)c1` [ABC-24] registered an IC50 with HCT-116 tumor cells of 5 µM.

As for `O=C(NCc1ccc(Cl)nc1)c1ccc2cc(NC(=O)c3ccc(F)cc3)ccc2c1` [ABC-07], the IC50 came out at 5.8 µM in the assay on HCT-116 tumor cells and 7.6 µM with MCF-7 tumor cells.

As for `O=C(Nc1ccc2cc(C(=O)Nc3cccc(C(F)(F)F)c3)ccc2c1)c1cccc(C(F)(F)F)c1` [ABC-26], the IC50 in the assay with HCT-116 tumor cells came out at 3.5 µM.

As to `O=C(Nc1ccc2cc(C(=O)Nc3nccs3)ccc2c1)c1cccc(Cl)c1` [ABC-45], the IC50 in the assay with HCT-116 tumor cells was found to be 10 µM; in the assay on MCF-7 tumor cells it was 6.7 µM; in the assay with Calu-6 tumor cells, 12.6 µM; in the assay on A549 tumor cells it was 4.3 µM.

As for `O=C(Nc1ccc2cc(C(=O)Nc3nccs3)ccc2c1)c1ccc(Cl)c(Cl)c1` [ABC-46], the IC50 in the assay on HCT-116 tumor cells is 2 µM; with MCF-7 tumor cells, 6.2 µM; in the assay on A549 tumor cells, 1.6 µM.

Regarding `O=C(NCc1ccc(Cl)nc1)c1ccc2cc(NC(=O)c3cccc(C(F)(F)F)c3)ccc2c1` [ABC-17], the IC50 was 3.6 µM with HCT-116 tumor cells and 3.2 µM in the assay with MCF-7 tumor cells.

On to `COc1ccc(C(=O)Nc2ccc3cc(C(=O)NC4CC4)ccc3c2)cc1` [ABC-27], for which the IC50 in the assay with HCT-116 tumor cells came to 38.8 µM; with MCF-7 tumor cells it was 2.65 µM.

For `O=C(Nc1ccc2cc(C(=O)NC3CC3)ccc2c1)c1ccc(Cl)c(Cl)c1` [ABC-44], the IC50 in the assay with Calu-6 tumor cells worked out at 5.5 µM.

As to `CN1CCN(C(=O)c2ccc3cc(NC(=O)c4ccc(Cl)c(Cl)c4)ccc3c2)CC1` [ABC-42], the IC50 came to 20 µM in the assay on HCT-116 tumor cells, 7.1 µM with Calu-6 tumor cells and 3.7 µM in the assay with A549 tumor cells.

For the molecule `COc1ccccc1C(=O)Nc1ccc2cc(C(=O)NC(C)C)ccc2c1` [ABC-38], the IC50 in the assay on HCT-116 tumor cells came out at 5 µM; in the assay on MCF-7 tumor cells, 9 µM.

For `COc1ccc(C(=O)Nc2ccc3cc(C(=O)Nc4nccs4)ccc3c2)cc1` [ABC-31], the IC50 with MCF-7 tumor cells came to 3.9 µM.

The molecule `Cc1cccc(C(=O)Nc2ccc3cc(C(=O)N4CCN(C)CC4)ccc3c2)c1` [ABC-05] displayed an IC50 in the assay on HCT-116 tumor cells of 10 µM.

In the case of `O=C(Nc1ccc2cc(C(=O)NC3CC3)ccc2c1)c1cccc(Cl)c1` [ABC-43], the IC50 in the assay on Calu-6 tumor cells is 25.3 µM; with A549 tumor cells it was 25.2 µM.

With `COc1ccc(C(=O)Nc2ccc3cc(C(=O)Nc4cccc(C(F)(F)F)c4)ccc3c2)cc1` [ABC-33], the IC50 amounted to 3 µM in the assay with HCT-116 tumor cells and 6.6 µM with MCF-7 tumor cells.

As for `O=C(Nc1ccc2cc(C(=O)NC3CC3)ccc2c1)c1cccc(C(F)(F)F)c1` [ABC-28], the IC50 in the assay with HCT-116 tumor cells worked out at 5 µM.

With `CN1CCN(C(=O)c2ccc3cc(NC(=O)c4cccc(C(F)(F)F)c4)ccc3c2)CC1` [ABC-20], the IC50 stood at 24.9 µM in the assay with HCT-116 tumor cells and 2.7 µM in the assay on MCF-7 tumor cells.

As for `O=C(Nc1ccc2cc(C(=O)N3CCOCC3)ccc2c1)c1ccc(Cl)c(Cl)c1` [ABC-40], the IC50 in the assay on Calu-6 tumor cells is 12.4 µM.

On to `O=C(Nc1ccc2cc(C(=O)N3CCOCC3)ccc2c1)c1ccc(F)cc1` [ABC-11], for which the IC50 in the assay on HCT-116 tumor cells was found to be 5.5 µM; in the assay on MCF-7 tumor cells it was 3.7 µM; in the assay on A549 tumor cells, 28.1 µM.

As for `Cc1cccc(C(=O)Nc2ccc3cc(C(=O)NCc4ccc(Cl)nc4)ccc3c2)c1` [ABC-09], the IC50 with HCT-116 tumor cells was 3.5 µM; in the assay with MCF-7 tumor cells it was 3.2 µM.
